From PubChem BioAssay AID256 (DTP/NCI, 2004)
Toxic doses and inconclusive results are not listed. Rule for the calls: active = survival T/C of 150% or more; inactive = T/C below 125% in these data.

Tested on: CD2F1 mice, L1210 leukemia ip, survival T/C
Assay: NCI In Vivo Anticancer Drug Screen. Data for tumor model L1210 Leukemia (intraperitoneal) in CD2F1 (CDF1) mice
Settings: endpoint: mean survival time, higher = longer survival
Method in brief: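 Implant tumor; dose compound or vehicle; measure endpoint in both groups; report treated divided by control.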

Measured: T/C

NC(N)=NC(N)=Nc1ccc(C(=O)O)c(O)c1
inactive: dose: 100.0 mg/kg/injection, schedule: Q01DX009 (ip), vehicle: saline 106 % of control | dose: 200.0 mg/kg/injection, schedule: Q01DX009 (ip), vehicle: saline 95 % of control | dose: 400.0 mg/kg/injection, schedule: Q01DX009 (ip), vehicle: saline 95 % of control

Cc1ccc(S(=O)(=O)/C=C(/SC#N)C2CCCCC2)cc1
inactive: dose: 100.0 mg/kg/injection, schedule: Q01DX009 (ip), vehicle: saline with Tween-80 96 % of control | dose: 200.0 mg/kg/injection, schedule: Q01DX009 (ip), vehicle: saline with Tween-80 100 % of control | dose: 400.0 mg/kg/injection, schedule: Q01DX009 (ip), vehicle: saline with Tween-80 102 % of control

O=C1CCCCCN1C(=O)c1ccccc1
inactive: dose: 50.0 mg/kg/injection, schedule: Q01DX009 (ip), vehicle: other 105 % of control | dose: 100.0 mg/kg/injection, schedule: Q01DX009 (ip), vehicle: other 97 % of control | dose: 200.0 mg/kg/injection, schedule: Q01DX009 (ip), vehicle: other 105 % of control

Cc1cc(C)c(S(=O)(=O)c2ccc(F)cc2)c(C)c1
inactive: dose: 100.0 mg/kg/injection, schedule: Q01DX001 (ip), vehicle: saline 100 % of control | dose: 100.0 mg/kg/injection, schedule: Q04DX003 (ip), vehicle: saline 101 % of control | dose: 200.0 mg/kg/injection, schedule: Q01DX001 (ip), vehicle: saline 102 % of control | dose: 200.0 mg/kg/injection, schedule: Q04DX003 (ip), vehicle: saline 102 % of control | dose: 400.0 mg/kg/injection, schedule: Q01DX001 (ip), vehicle: saline 100 % of control | dose: 400.0 mg/kg/injection, schedule: Q04DX003 (ip), vehicle: saline 96 % of control
